Measured values taken from patent US20240252677A1, “ONE-COMPONENT DELIVERY SYSTEM FOR NUCLEIC ACIDS” (The Trustees of the University of Pennsylvania, priority 2021, published 2024).

How the values were obtained:
HEK293T cells = assay: In vitro Luc-mRNA transfection, luciferase luminescence expression in HEK293T cells; assay type: cell-based, human; design: unit not given here; settings: Table 16; HEK 293T cells, 125 ng/well, n=3
In short: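 HEK293T cells were transfected with nucleoside-modified firefly luciferase mRNA at 125 ng/well delivered in the test particles. TransIT and MC3-based LNPs at equal mRNA dose served as comparators. After 24 h (18-20 h in some runs) at 37° C the cells were lysed, and luciferase luminescence was read on a luminometer, in triplicate.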

spleen = assay: In vivo mRNA delivery, IVIS imaging of organs: spleen; design: species or system mice; key to Organs with luminescence: spleen: strong: Strong meant the luminescence intensity in that organ was relatively high, compared to other organs; weak: Weak meant the luminescence intensity in that organ was relatively low, compared to other organs; settings: Table 17; mice, IVIS, 4-6 h after injection; intensity relative to other organs

SMILES | Luminescence (HEK293T cells) | Organs with luminescence: spleen (spleen)
CCCCCCCCCCCCCCCCCOc1cc(COC(=O)CCCN2CCN(C)CC2)cc(OCCCCCCCCCCCCCCC)c1 [IAJD 151, 3-(Heptadecyloxy)-5-(pentadecyloxy)benzyl 4-(4-methylpiperazin-1-yl)butanoate] | 9,310 | spleen (strong)
CCCCCCCCCCCCCCCCCOc1cc(COC(=O)CCCN2CCN(CCO)CC2)cc(OCCCCCCCCCCCCCCC)c1 [IAJD 152, 3-(Heptadecyloxy)-5-(pentadecyloxy)benzyl 4-(4-(2-hydroxyethyl)piperazin-1-yl)butanoate] | 88,202 | spleen (strong)
CCCCCCCCCCCCCCCCCCOc1cc(COC(=O)CCCN2CCN(C)CC2)cc(OCCCCCCCCCCCCCCC)c1 [IAJD 153, 3-(Octadecyloxy)-5-(pentadecyloxy)benzyl 4-(4-methylpiperazin-1-yl)butanoate] | 8,860 | spleen (strong)
CCCCCCCCCCCCCCCCCCOc1cc(COC(=O)CCCN2CCN(CCO)CC2)cc(OCCCCCCCCCCCCCCC)c1 [IAJD 154, 3-(Octadecyloxy)-5-(pentadecyloxy)benzyl 4-(4-(2-hydroxyethyl)piperazin-1-yl)butanoate] | 17,871 | spleen (strong)
CCCCCCCCCCCOc1cc(COC(=O)c2cc(OCCOCCOCCCC(=O)CCCN3CCCCC3)c(OCCOCCOCCOCc3ccccc3)c(OCCOCCOCCOC(=O)CCCN3CCCCC3)c2)cc(OCC(CC)CCCC)c1 (stereo not drawn) [IAJD 155] | 74 | spleen (weak)
CCCCCCCCCCCCCOc1cc(COC(=O)CCCN2CCN(C)CC2)cc(OCC(CC)CCCC)c1 (stereo not drawn) [IAJD 161, 3-((2-Ethylhexyl)oxy)-5-(tridecyloxy)benzyl 4-(4-methylpiperazin-1-yl)butanoate] | 128 | spleen (strong)
CCCCCCCCCCCCCOc1cc(COC(=O)CCCN2CCN(CCO)CC2)cc(OCC(CC)CCCC)c1 (stereo not drawn) [IAJD 162, 3-((2-Ethylhexyl)oxy)-5-(tridecyloxy)benzyl 4-(4-(2-hydroxyethyl)piperazin-1-yl)butanoate] | 222,235 | spleen (strong)
CCCCCCCCCCCCCCOc1cc(COC(=O)CCCN2CCN(C)CC2)cc(OCCCCCCCCCCCCC)c1 [IAJD 171, 3-(Tetradecyloxy)-5-(tridecyloxy)benzyl 4-(4-methylpiperazin-1-yl)butanoate] | 1,436 | spleen (strong)
CCCCCCCCCCCCCCOc1cc(COC(=O)CCCN2CCN(CCO)CC2)cc(OCCCCCCCCCCCCC)c1 [IAJD 172, 3-(Tetradecyloxy)-5-(tridecyloxy)benzyl 4-(4-(2-hydroxyethyl)piperazin-1-yl)butanoate] | 166,377 | spleen (strong)
CCCCCCCCCCCCCCCCOc1cc(COC(=O)CCCN2CCN(C)CC2)cc(OCCCCCCCCCCCCC)c1 [IAJD 173, 3-(Hexadecyloxy)-5-(tridecyloxy)benzyl 4-(4-methylpiperazin-1-yl)butanoate] | 2,302 | spleen (weak)
CCCCCCCCCCCCCCCCCCOc1cc(COC(=O)CCCN2CCN(C)CC2)cc(OCCCCCCCCCCCCC)c1 [IAJD 177, 3-(Octadecyloxy)-5-(tridecyloxy)benzyl 4-(4-methylpiperazin-1-yl)butanoate] | 4,343 | spleen (strong)
CCCCCCCCCCCCCCCCCCOc1cc(COC(=O)CCCN2CCN(CCO)CC2)cc(OCCCCCCCCCCCCC)c1 [IAJD 178, 3-(Octadecyloxy)-5-(tridecyloxy)benzyl 4-(4-(2-hydroxyethyl)piperazin-1-yl)butanoate] | 235,419 | spleen (strong)
